Paper PMC9500072, “Topical application of an irreversible small molecule inhibitor of lysyl oxidases ameliorates skin scarring and fibrosis” (Nature Communications, 2022)
Where “and” joins values, the source holds several entries; their conditions need not be identical. Identical values can stand only once.

Columns and labels:
[1] = target: Dog Aorta LOX (Canis lupus familiaris, UniProt A0A8I3N9H6); assay type: biochemical
Description: (§1) The measurement of the enzymatic activity of all lysyl oxidase family members was based on the detection of hydrogen peroxide with an Amplex-Red oxidation assay, as previously described; miniaturized in 384 well formats, with the appropriate combination of substrate and assay buffer for each individual enzyme. After a 30 min pre-incubation of the enzyme at 37 °C with the test compound (or with different incubation times for the time-dependency assay), one volume of reaction mixture containing 120 μM Amplex Red (AR) (Life Technologies), 1.5 U/mL horseradish peroxidase (HRP) (Sigma-Aldrich) and the specific substrate was added to each sample. The relative fluorescence units (RFU) were then measured every 2.5 min for 30 min at 37 °C, excitation 565 nm and emission 590, on a BMG Clariostar Microplate Reader. All the substrates were used at concentrations corresponding to their Km towards the corresponding enzyme, or with a range of different concentrations for the substrate competition experiments.
Lysyl oxidases assay buffer contained 1.2 M urea, 50 mM sodium borate buffer, pH 8.2 and 100 µM β-aminoproprionitrile (BAPN, Sigma-Aldrich) was used for low control. […]

[2] = target: T1, Bovine (aorta) LOX (Bos taurus, UniProt P33072); test: Amplex Red oxidation assay, LOX inhibition; assay type: biochemical
T1 construct: Bovine (aorta) LOX used for analog screening due to ready availability; from tissue; host or cells: bovine aorta
T1 sequence (P33072 170-418): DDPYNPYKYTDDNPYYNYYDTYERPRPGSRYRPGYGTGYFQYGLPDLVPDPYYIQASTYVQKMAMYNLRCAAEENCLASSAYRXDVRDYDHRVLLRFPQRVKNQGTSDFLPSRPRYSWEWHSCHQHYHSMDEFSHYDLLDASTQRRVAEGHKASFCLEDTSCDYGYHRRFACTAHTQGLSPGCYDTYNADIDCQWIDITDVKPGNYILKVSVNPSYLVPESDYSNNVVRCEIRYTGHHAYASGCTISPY
Description: as §1
Lysyl oxidases assay buffer contained 1.2 M urea, 50 mM sodium borate buffer, pH 8.2 and 100 µM β-aminoproprionitrile (BAPN, Sigma-Aldrich) was used for low control.

[3] = target: Adrenergic α1B (Rattus norvegicus, UniProt P15823); test: Eurofins panel 203200; assay type: binding
Chain of Adrenergic α1B (P15823 whole entry): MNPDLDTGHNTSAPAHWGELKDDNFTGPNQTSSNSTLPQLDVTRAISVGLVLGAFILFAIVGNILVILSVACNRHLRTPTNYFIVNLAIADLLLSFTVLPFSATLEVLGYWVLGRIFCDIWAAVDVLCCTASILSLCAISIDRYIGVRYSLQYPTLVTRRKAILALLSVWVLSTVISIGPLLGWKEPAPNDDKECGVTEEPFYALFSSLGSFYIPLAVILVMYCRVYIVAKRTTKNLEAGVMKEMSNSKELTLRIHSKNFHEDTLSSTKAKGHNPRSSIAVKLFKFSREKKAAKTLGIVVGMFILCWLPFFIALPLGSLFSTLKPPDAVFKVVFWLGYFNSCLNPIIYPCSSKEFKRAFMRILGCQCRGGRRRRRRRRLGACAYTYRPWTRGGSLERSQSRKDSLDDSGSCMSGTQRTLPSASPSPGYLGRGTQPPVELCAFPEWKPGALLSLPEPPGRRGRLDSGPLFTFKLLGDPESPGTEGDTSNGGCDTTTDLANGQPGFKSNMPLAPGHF

[4] = target: Estrogen ERα (Homo sapiens, UniProt P03372); test: Eurofins panel 226010; assay type: binding
Chain of Estrogen ERα (P03372 whole entry): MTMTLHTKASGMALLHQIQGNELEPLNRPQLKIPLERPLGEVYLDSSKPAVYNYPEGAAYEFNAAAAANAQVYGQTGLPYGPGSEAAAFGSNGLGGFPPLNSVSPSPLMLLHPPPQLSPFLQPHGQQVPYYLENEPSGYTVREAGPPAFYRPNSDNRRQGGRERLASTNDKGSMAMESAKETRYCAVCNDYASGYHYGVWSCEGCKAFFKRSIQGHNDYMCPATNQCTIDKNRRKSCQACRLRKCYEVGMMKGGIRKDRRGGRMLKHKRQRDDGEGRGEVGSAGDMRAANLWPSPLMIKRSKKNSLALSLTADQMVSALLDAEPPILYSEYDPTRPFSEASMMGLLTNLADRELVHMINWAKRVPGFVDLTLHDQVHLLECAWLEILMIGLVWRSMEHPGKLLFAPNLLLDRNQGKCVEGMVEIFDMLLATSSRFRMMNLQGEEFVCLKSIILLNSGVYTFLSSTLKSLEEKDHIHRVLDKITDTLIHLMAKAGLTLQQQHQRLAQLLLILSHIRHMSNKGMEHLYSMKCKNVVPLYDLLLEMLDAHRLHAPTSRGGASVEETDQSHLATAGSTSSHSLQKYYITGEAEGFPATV

[5] = tested on: Glutamate, Kainate; test: Eurofins panel 232700; assay type: binding, rat; details: 10 µM
[6] = tested on: Glutamate, NMDA, Glycine; test: Eurofins panel 232910; assay type: binding, rat; details: 10 µM
[7] = target: Interleukin IL-1 (Mus musculus, UniProt P13504); test: Eurofins panel 243520; assay type: binding
Chain of Interleukin IL-1 (P13504 20-576): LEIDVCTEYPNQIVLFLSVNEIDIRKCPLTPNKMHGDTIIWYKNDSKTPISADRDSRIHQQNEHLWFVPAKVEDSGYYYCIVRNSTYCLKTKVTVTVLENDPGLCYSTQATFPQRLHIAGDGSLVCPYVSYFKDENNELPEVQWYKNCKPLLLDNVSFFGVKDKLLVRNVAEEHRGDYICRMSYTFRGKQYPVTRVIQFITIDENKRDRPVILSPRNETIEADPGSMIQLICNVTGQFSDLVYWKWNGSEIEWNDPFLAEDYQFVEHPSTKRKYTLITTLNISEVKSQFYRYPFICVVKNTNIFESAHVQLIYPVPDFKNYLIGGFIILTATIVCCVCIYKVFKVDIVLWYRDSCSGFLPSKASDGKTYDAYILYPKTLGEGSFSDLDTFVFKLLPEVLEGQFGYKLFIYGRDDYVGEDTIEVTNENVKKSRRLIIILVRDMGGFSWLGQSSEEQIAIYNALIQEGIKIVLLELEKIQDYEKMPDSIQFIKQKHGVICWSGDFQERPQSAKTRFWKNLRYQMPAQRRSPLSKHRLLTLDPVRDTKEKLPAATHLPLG

[8] = target: Melatonin MT1 (Homo sapiens, UniProt P48039); test: Eurofins panel 251600; assay type: binding
Chain of Melatonin MT1 (P48039 whole entry): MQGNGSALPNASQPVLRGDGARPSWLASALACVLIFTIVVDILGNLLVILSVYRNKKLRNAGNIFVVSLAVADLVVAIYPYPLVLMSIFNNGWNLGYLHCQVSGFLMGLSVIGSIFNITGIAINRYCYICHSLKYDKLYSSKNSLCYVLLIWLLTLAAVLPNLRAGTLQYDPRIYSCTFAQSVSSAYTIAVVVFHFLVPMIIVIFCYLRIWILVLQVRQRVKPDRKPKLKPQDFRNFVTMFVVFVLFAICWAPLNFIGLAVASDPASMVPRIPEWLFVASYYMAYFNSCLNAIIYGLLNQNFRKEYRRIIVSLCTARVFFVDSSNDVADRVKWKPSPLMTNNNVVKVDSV

[9] = tested on: Rolipram; test: Eurofins panel 270000; assay type: binding, rat; details: 10 µM
[10] = tested on: lysyl oxidase activity in the skin; test: Rat pharmacokinetic-pharmacodynamic model, skin lysyl oxidase activity; assay type: in vivo; details: for skin LOX activity S/N: individual animals; for inhibition of the specific lysyl oxidase signal: after 24 h
Description: PXS-6302 was formulated as an oil in water cream of different concentrations (0, 0.3, 1, 10%) and applied to a shaved area on the back of a rat (500 mg cream applied to 16 cm^2). After 24 h animals were sacrificed, the concentration of PXS-6302 in the skin was measured and the lysyl oxidase activity determined.
Fig. 5 Pharmacokinetic-pharmacodynamic measurement of target engagement in rat skin in vivo. […] Activity was measured 24 h after last topical application. Noise in these assays was determined by measuring background fluorescent changes in the presence of a high (>300 μM) concentration of BAPN to block all lysyl oxidase activity in the presence of other amine oxidase inhibitors (n = 3 per group). The signal (activity in the absence of BAPN) over noise (signal of the same extract in the presence of BAPN). Statistical analysis was performed with one-way ANOVA with Tukey’s method for multiple comparisons. *p < 0.05, **p < 0.01, ***p < 0.001 and ****p < 0.0001. Source data are provided as a Source Data file. […]
PXS-6302 was formulated as an oil in water cream of different concentrations (0, 0.3, 1, 10%) and applied to a shaved area on the back of an adult rat (500 mg cream applied to 16 cm^2 skin surface area). After 24 h animals were euthanased. For the detection of lysyl oxidase activity in the skin, epidermal and dermal layers of the skin were dissected, pre-cooled with liquid nitrogen and pulverized. Samples were washed by homogenization with ice-cold wash buffer (0.15 M NaCl, 50 mM sodium borate, pH 8.0 with 0.25 mM PMSF and 1 µL/mL bovine aprotinin as protease inhibitors) at 100 µL/mg, centrifuged at 10,000 × g for 10 min at 4 °C and supernatant discarded. After the final washing step, the pellet was resuspended in extraction buffer (6 M urea, 50 mM sodium borate, pH 8.2 with 0.25 mM PMSF and 1 µL/mL aprotinin as protease inhibitors) with ratio of buffer volume to tissue weight at 4:1. After a 3 h incubation at 4 °C, the mixture was diluted 1:2 with assay buffer containing 50 mM sodium borate (pH 8.2), centrifuged at 20,000 × g for 20 min at 4 °C. The collected supernatant was spiked with pargyline hydrochloride and mofegiline hydrochloride at final concentrations of 0.5 mM and 1 µM, respectively, to inhibit amine oxidases. Lysyl oxidase activity was measured as previously described. The concentration of PXS-6302 in the skin was also measured in the same samples using LCMSMS as described for Franz cell diffusion assay.

[11] = tested on: deep-dermal contact burn scar; test: Porcine burn injury model with tensile strength testing; assay type: in vivo, pig
[12] = target: Cyclooxygenase COX-1 (Homo sapiens, UniProt P23219); test: Eurofins panel 116020; assay type: biochemical
Chain of Cyclooxygenase COX-1 (P23219 24-599): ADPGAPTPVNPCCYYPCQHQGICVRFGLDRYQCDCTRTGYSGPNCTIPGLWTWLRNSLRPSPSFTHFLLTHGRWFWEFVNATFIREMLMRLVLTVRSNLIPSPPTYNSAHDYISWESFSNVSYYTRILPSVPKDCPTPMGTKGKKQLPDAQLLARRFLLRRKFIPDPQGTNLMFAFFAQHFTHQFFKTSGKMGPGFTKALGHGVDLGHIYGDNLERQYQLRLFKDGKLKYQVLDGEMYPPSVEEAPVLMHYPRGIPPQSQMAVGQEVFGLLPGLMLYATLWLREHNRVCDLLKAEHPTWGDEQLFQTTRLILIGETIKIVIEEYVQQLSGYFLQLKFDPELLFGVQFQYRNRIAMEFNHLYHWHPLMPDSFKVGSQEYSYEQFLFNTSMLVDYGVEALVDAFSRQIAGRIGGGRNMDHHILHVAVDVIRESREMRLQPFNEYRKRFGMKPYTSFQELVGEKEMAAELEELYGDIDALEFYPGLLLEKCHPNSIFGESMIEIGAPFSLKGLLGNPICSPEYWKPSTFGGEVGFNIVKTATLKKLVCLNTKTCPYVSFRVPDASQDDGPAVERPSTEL

[13] = tested on: lysyl oxidases; parameters: method as in ACTRN1262100322831; details: ref ACTRN1262100322831; cited from earlier work

Chain of Dog Aorta LOX (A0A8I3N9H6 entry or part of it): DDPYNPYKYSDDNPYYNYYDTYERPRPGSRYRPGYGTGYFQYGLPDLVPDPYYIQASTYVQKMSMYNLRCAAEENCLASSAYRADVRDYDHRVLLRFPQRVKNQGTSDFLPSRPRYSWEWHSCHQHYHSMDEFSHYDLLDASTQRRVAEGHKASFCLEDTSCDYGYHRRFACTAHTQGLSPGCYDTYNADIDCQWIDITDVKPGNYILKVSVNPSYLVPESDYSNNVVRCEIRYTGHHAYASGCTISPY

## N#CCCN [BAPN, β-aminoproprionitrile, reference compound]
[1]
  Dog Aorta LOX pIC50±SD: 5.7 ± 0.1
  IC50: 2130 nM

## NC/C=C(\F)CS(=O)(=O)c1ccccc1 [PXS-4787]
[2]; 30 min pre-incubation
  IC50: 2000 nM
[2]; log conc -4.5229, read-out: Fig 2A inhibition (mean)
  inhibition at 30 µM: 99.2%
[2]; log conc -5, read-out: Fig 2A inhibition (mean)
  inhibition at 10 µM: 92.3%
[2]; log conc -5.4771, read-out: Fig 2A inhibition (mean)
  inhibition at 3.333 µM: 65.8%
[2]; log conc -5.9542, read-out: Fig 2A inhibition (mean)
  inhibition at 1.111 µM: 35%
[2]; log conc -6.4313, read-out: Fig 2A inhibition (mean)
  inhibition at 0.3704 µM: 14.2%
[2]; log conc -6.9083, read-out: Fig 2A inhibition (mean)
  inhibition at 0.1235 µM: 4.31%
[2]; log conc -7.3851, read-out: Fig 2A inhibition (mean)
  inhibition at 0.0412 µM: 1.21%
[2]; log conc -7.8633, read-out: Fig 2A inhibition (mean)
  inhibition at 0.0137 µM: -0.629%
[2]; log conc -8.3372, read-out: Fig 2A inhibition (mean)
  inhibition at 0.0046 µM: -1.3%
[2]; log conc -8.8239, read-out: Fig 2A inhibition (mean)
  inhibition at […]: -1.09%
[2]; log conc -9.301, read-out: Fig 2A inhibition (mean)
  inhibition at 0.0005 µM: -1.47%
[3]
  inhibition at 10 µM: -2%
[4]
  inhibition at 10 µM: 3%
[5]
  % Inh.: 16%
[6]
  % Inh.: 5%
[7]
  inhibition at 10 µM: 7%
[8]
  inhibition at 10 µM: -2%
[9]
  % Inh.: 17%

## NC/C=C(\F)C(F)(F)S(=O)(=O)c1ccccc1 [PXS-6302]
[10]; 0.5, 1, 3% cream once daily 5 days
  lysyl oxidase activity after repeat dosing: strongly reduced
[10]; 1% cream, 48 h after the last dose
  lysyl oxidase activity, % of pre-drug activity: 26%
[10]; repeat application 0.5% 400mg
  skin LOX activity S/N: 1.603 and 1.3949 and 1.286 and 1.15
[10]; repeat application 1% 400mg
  skin LOX activity S/N: 1.251 and 1.262 (2×) and 1.26
[10]; repeat application 3% 400mg
  skin LOX activity S/N: 1.108 and 1.192 and 1.079 and 1.121
[10]; single application 0.3% 500mg
  skin LOX activity S/N: 1.245 and 1.84 and 2.264
[10]; single application 1% 500mg
  skin LOX activity S/N: 1.893 and 1.116 and 1.337
[10]; single application 10% 500mg
  skin LOX activity S/N: 1.274 and 1.089 and 1.033
[10]; single dose 1% cream
  inhibition of the specific lysyl oxidase signal: 67%
[10]; single dose 10% cream
  inhibition of the specific lysyl oxidase signal: 98%
[11]; 3% cream
  tensile strength, treated vs control scars: no significant differences
[11]; 3% cream once daily from re-epithelialisation to 2 months post-injury
  scar photo score by blinded plastic surgeons vs placebo: significantly better
[11]; 3% cream, p = 0.15
  treated scars with lower Young's modulus than matched vehicle treated scar: 5/6
[12]
  inhibition at 30 µM: 36%
[13]
  target engagement and inhibition in phase I trial: strong target engagement and long-lasting inhibition
